“And” between values parts separate entries of the source, which are not always exact repeats. Identical values can stand only once. Toxic doses and inconclusive results are not listed.
Tested on: BDF1 mice, P388 leukemia ip, median survival T/C
Assay: NCI In Vivo Anticancer Drug Screen. Data for tumor model P388 Leukemia (intraperitoneal) in B6D2F1 (BDF1) mice
Settings: endpoint: median survival time, higher = longer survival
In short: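 Each value expresses how treatment altered survival: treated-mouse outcome over vehicle-mouse outcome, both groups bearing the transplanted tumour.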

[1] = dose: 100.0 mg/kg/injection, schedule: Q04DX003 (ip), vehicle: saline with Tween-80
[2] = dose: 200.0 mg/kg/injection, schedule: Q04DX003 (ip), vehicle: saline with Tween-80
[3] = dose: 400.0 mg/kg/injection, schedule: Q04DX003 (ip), vehicle: saline with Tween-80
[4] = dose: 200.0 mg/kg/injection, schedule: Q01DX009 (ip), vehicle: saline with Tween-80
[5] = dose: 100.0 mg/kg/injection, schedule: Q04DX003 (ip), vehicle: Klucel (hydroxypropylcellulose) (HPC)
[6] = dose: 200.0 mg/kg/injection, schedule: Q04DX003 (ip), vehicle: Klucel (hydroxypropylcellulose) (HPC)
[7] = dose: 50.0 mg/kg/injection, schedule: Q01DX009 (ip), vehicle: saline with Tween-80

C[n+]1c(/C=C/c2ccc(O)c3ncccc23)[se]c2ccccc21
T/C (dose: 0.25 mg/kg/injection, schedule: Q01DX010 (ip), vehicle: saline): 104 % of control
T/C (dose: 0.5 mg/kg/injection, schedule: Q01DX010 (ip), vehicle: saline): 118 % of control
T/C (dose: 1.0 mg/kg/injection, schedule: Q01DX010 (ip), vehicle: saline): 104 % of control
T/C (dose: 1.5 mg/kg/injection, schedule: Q01DX010 (ip), vehicle: acetone): 165 % of control
T/C (dose: 3.0 mg/kg/injection, schedule: Q01DX010 (ip), vehicle: acetone): 165 % of control
T/C (dose: 3.0 mg/kg/injection, schedule: Q01DX010 (ip), vehicle: saline): 122 % of control
T/C (dose: 6.0 mg/kg/injection, schedule: Q01DX010 (ip), vehicle: acetone): 185 % of control
T/C (dose: 25.0 mg/kg/injection, schedule: Q01DX010 (ip), vehicle: saline): 118 % of control

O=c1c2ccccc2[nH]c2ccccc12
T/C (dose: 50.0 mg/kg/injection, schedule: Q04DX003 (ip), vehicle: saline with Tween-80): 105 % of control
T/C [1]: 99 % of control
T/C [2]: 99 % of control
T/C [3]: 96 % of control

c1ccc(-c2c(-c3ccccc3)c(-c3ccccc3)c(-c3ccccc3)c(-c3ccccc3)c2-c2ccccc2)cc1
T/C (dose: 6.25 mg/kg/injection, schedule: Q01DX009 (ip), vehicle: water): 93 % of control
T/C (dose: 12.5 mg/kg/injection, schedule: Q01DX009 (ip), vehicle: water): 115 % of control
T/C (dose: 12.5 mg/kg/injection, schedule: Q04DX003 (ip), vehicle: water): 106 % of control
T/C (dose: 25.0 mg/kg/injection, schedule: Q04DX003 (ip), vehicle: water): 106 % of control and 108 % of control
T/C (dose: 50.0 mg/kg/injection, schedule: Q01DX009 (ip), vehicle: water): 90 % of control
T/C (dose: 50.0 mg/kg/injection, schedule: Q04DX003 (ip), vehicle: water): 100 % of control and 109 % of control
T/C (dose: 100.0 mg/kg/injection, schedule: Q01DX009 (ip), vehicle: water): 89 % of control
T/C (dose: 100.0 mg/kg/injection, schedule: Q04DX003 (ip), vehicle: water): 88 % of control and 97 % of control

CC(=O)[C@@]1(O)CC[C@H]2[C@@H]3C[C@H](C)C4=CC(=O)CC[C@]4(C)[C@H]3[C@@H](O)C[C@@]21C
T/C [1]: 109 % of control
T/C [4]: 122 % of control
T/C [2]: 109 % of control
T/C (dose: 400.0 mg/kg/injection, schedule: Q01DX009 (ip), vehicle: saline with Tween-80): 90 % of control
T/C [3]: 118 % of control

CCCOP(=O)(CCl)OCCC
T/C (dose: 100.0 mg/kg/injection, schedule: Q04DX003 (ip), vehicle: saline): 95 % of control
T/C (dose: 200.0 mg/kg/injection, schedule: Q04DX003 (ip), vehicle: saline): 100 % of control
T/C (dose: 400.0 mg/kg/injection, schedule: Q04DX003 (ip), vehicle: saline): 100 % of control

Nc1ccc(S(=O)(=O)Nc2ccc(I)cc2)cc1
T/C (dose: 100.0 mg/kg/injection, schedule: Q01DX009 (ip), vehicle: Klucel (hydroxypropylcellulose) (HPC)): 90 % of control
T/C [5]: 123 % of control
T/C (dose: 200.0 mg/kg/injection, schedule: Q01DX009 (ip), vehicle: Klucel (hydroxypropylcellulose) (HPC)): 104 % of control
T/C [6]: 96 % of control
T/C (dose: 400.0 mg/kg/injection, schedule: Q01DX009 (ip), vehicle: Klucel (hydroxypropylcellulose) (HPC)): 100 % of control
T/C (dose: 400.0 mg/kg/injection, schedule: Q04DX003 (ip), vehicle: Klucel (hydroxypropylcellulose) (HPC)): 92 % of control

Cc1ccc(C(=O)N/N=C/C(=O)O)cc1
T/C (dose: 12.5 mg/kg/injection, schedule: Q04DX003 (ip), vehicle: Klucel (hydroxypropylcellulose) (HPC)): 113 % of control
T/C (dose: 25.0 mg/kg/injection, schedule: Q04DX003 (ip), vehicle: Klucel (hydroxypropylcellulose) (HPC)): 106 % of control
T/C (dose: 50.0 mg/kg/injection, schedule: Q04DX003 (ip), vehicle: Klucel (hydroxypropylcellulose) (HPC)): 116 % of control
T/C [5]: 106 % of control
T/C [6]: 122 % of control

OCC(O)C1CCCCN1 (stereo unspecified)
T/C (dose: 50.0 mg/kg/injection, schedule: Q01DX009 (ip), vehicle: saline): 104 % of control
T/C (dose: 100.0 mg/kg/injection, schedule: Q01DX009 (ip), vehicle: saline): 106 % of control
T/C (dose: 200.0 mg/kg/injection, schedule: Q01DX009 (ip), vehicle: saline): 104 % of control

COc1ccc(NC(=O)N(CCCl)N=O)cc1OC
T/C (dose: 0.29 mg/kg/injection, schedule: Q04DX003 (ip), vehicle: saline with Tween-80): 107 % of control
T/C (dose: 0.44 mg/kg/injection, schedule: Q04DX003 (ip), vehicle: saline with Tween-80): 110 % of control
T/C (dose: 0.66 mg/kg/injection, schedule: Q04DX003 (ip), vehicle: saline with Tween-80): 122 % of control
T/C (dose: 0.79 mg/kg/injection, schedule: Q01DX009 (ip), vehicle: saline with Tween-80): 174 % of control
T/C (dose: 1.19 mg/kg/injection, schedule: Q01DX009 (ip), vehicle: saline with Tween-80): 185 % of control
T/C (dose: 1.78 mg/kg/injection, schedule: Q01DX009 (ip), vehicle: saline with Tween-80): 186 % of control
T/C (dose: 2.2 mg/kg/injection, schedule: Q04DX003 (ip), vehicle: saline with Tween-80): 172 % of control
T/C (dose: 2.66 mg/kg/injection, schedule: Q01DX009 (ip), vehicle: saline with Tween-80): 161 % of control and 194 % of control
T/C (dose: 3.3 mg/kg/injection, schedule: Q04DX003 (ip), vehicle: saline with Tween-80): 190 % of control
T/C (dose: 4.0 mg/kg/injection, schedule: Q01DX009 (ip), vehicle: saline with Tween-80): 169 % of control
T/C (dose: 5.0 mg/kg/injection, schedule: Q04DX003 (ip), vehicle: saline with Tween-80): 186 % of control
T/C (dose: 5.5 mg/kg/injection, schedule: Q04DX003 (ip), vehicle: saline with Tween-80): 218 % of control
T/C (dose: 6.0 mg/kg/injection, schedule: Q01DX009 (ip), vehicle: saline with Tween-80): 169 % of control
T/C (dose: 7.5 mg/kg/injection, schedule: Q04DX003 (ip), vehicle: saline with Tween-80): 209 % of control
T/C (dose: 8.3 mg/kg/injection, schedule: Q04DX003 (ip), vehicle: saline with Tween-80): 209 % of control
T/C (dose: 9.0 mg/kg/injection, schedule: Q01DX009 (ip), vehicle: saline with Tween-80): 260 % of control
T/C (dose: 12.5 mg/kg/injection, schedule: Q04DX003 (ip), vehicle: saline with Tween-80): 236 % of control
T/C (dose: 18.7 mg/kg/injection, schedule: Q04DX003 (ip), vehicle: saline with Tween-80): 281 % of control

CCOP(=S)(N1CC1(C)C)N1CC1(C)C (stereo unspecified)
T/C (dose: 264.0 mg/kg/injection, schedule: Q04DX003 (ip), vehicle: saline with Tween-80): 229 % of control

CC[n+]1ccc(Nc2ccc(NC(=O)c3ccc(Nc4cc[n+](CC)c5ccc([N+](=O)[O-])cc45)cc3)cc2)cc1
T/C (dose: 0.44 mg/kg/injection, schedule: Q04DX003 (ip), vehicle: saline): 111 % of control
T/C (dose: 0.66 mg/kg/injection, schedule: Q04DX003 (ip), vehicle: saline): 116 % of control
T/C (dose: 1.0 mg/kg/injection, schedule: Q04DX003 (ip), vehicle: saline): 100 % of control
T/C (dose: 1.5 mg/kg/injection, schedule: Q04DX003 (ip), vehicle: saline): 110 % of control
T/C (dose: 4.0 mg/kg/injection, schedule: Q04DX003 (ip), vehicle: saline): 150 % of control
T/C (dose: 6.0 mg/kg/injection, schedule: Q04DX003 (ip), vehicle: saline): 150 % of control
T/C (dose: 22.0 mg/kg/injection, schedule: Q04DX003 (ip), vehicle: saline): 152 % of control
T/C (dose: 33.0 mg/kg/injection, schedule: Q04DX003 (ip), vehicle: saline): 180 % of control
T/C (dose: 50.0 mg/kg/injection, schedule: Q04DX003 (ip), vehicle: saline): 186 % of control

CCCCCC1=NC(C)(C(=O)OC)OO1 (stereo unspecified)
T/C (dose: 25.0 mg/kg/injection, schedule: Q01DX009 (ip), vehicle: saline with Tween-80): 114 % of control
T/C [7]: 112 % of control

COc1ccc(C(=O)/C=C/c2ccc(OCc3ccccc3)cc2)cc1
T/C [7]: 100 % of control
T/C (dose: 100.0 mg/kg/injection, schedule: Q01DX009 (ip), vehicle: saline with Tween-80): 91 % of control
T/C [4]: 96 % of control

O=[N+]([O-])c1cccc(OCCCOc2ccccc2)c1
T/C (dose: 100.0 mg/kg/injection, schedule: Q01DX009 (ip), vehicle: other): 100 % of control
T/C (dose: 100.0 mg/kg/injection, schedule: Q04DX003 (ip), vehicle: other): 110 % of control
T/C (dose: 200.0 mg/kg/injection, schedule: Q01DX009 (ip), vehicle: other): 100 % of control
T/C (dose: 200.0 mg/kg/injection, schedule: Q04DX003 (ip), vehicle: other): 110 % of control
T/C (dose: 400.0 mg/kg/injection, schedule: Q01DX009 (ip), vehicle: other): 100 % of control
T/C (dose: 400.0 mg/kg/injection, schedule: Q04DX003 (ip), vehicle: other): 100 % of control
